Data reported in ChEMBL document CHEMBL1133256, “6-Bicyclopiperazinyl-1-arylsulfonylindoles and 6-bicyclopiperidinyl-1-arylsulfonylindoles derivatives as novel, potent, and selective 5-HT6 receptor antagonists” (Bioorg Med Chem Lett, 2000).
Blank lines part the entries; values can stand above or below the compound they belong to.

How the values were obtained:
[1] = molecular target: 5-hydroxytryptamine receptor 6 (Homo sapiens, UniProt P50406); assay: Displacement of [3H]LSD from human 5-hydroxytryptamine 6 receptor expressed in HEK 293 cells; type: cell-based, HEK293
5-hydroxytryptamine receptor 6, sequence (P50406 whole entry): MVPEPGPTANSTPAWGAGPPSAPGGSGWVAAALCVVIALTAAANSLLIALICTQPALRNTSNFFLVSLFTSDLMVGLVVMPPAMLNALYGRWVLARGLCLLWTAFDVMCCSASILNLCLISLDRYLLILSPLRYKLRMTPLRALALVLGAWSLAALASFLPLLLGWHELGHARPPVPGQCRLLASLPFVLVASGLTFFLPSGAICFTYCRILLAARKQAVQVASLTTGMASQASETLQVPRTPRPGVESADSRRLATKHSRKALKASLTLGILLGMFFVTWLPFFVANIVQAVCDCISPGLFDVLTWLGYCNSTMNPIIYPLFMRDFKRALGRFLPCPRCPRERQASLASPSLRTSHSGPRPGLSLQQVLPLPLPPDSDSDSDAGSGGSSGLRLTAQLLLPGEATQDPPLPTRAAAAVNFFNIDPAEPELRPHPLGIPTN

[2] = molecular target: T1, 5-hydroxytryptamine receptor 1F (Homo sapiens) (UniProt P30939); assay: In vitro binding affinity against human 5-hydroxytryptamine 1F receptor at a concentration of 100 (nM)
T1 sequence (whole entry): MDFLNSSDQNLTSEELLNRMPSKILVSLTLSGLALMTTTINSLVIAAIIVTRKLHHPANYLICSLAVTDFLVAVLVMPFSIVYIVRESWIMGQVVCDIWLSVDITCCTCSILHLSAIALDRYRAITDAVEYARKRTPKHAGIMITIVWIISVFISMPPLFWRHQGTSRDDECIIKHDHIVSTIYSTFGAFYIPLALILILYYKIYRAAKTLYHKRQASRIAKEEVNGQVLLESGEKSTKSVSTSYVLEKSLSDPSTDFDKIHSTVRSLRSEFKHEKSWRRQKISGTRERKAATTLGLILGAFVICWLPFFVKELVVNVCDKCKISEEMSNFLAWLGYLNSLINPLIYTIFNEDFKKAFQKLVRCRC

[3] = molecular target: T2, 5-hydroxytryptamine receptor 1A (Homo sapiens) (UniProt P08908); assay: In vitro binding affinity against human 5-hydroxytryptamine 1A receptor at a concentration of 100 (nM)
T2 sequence (whole entry): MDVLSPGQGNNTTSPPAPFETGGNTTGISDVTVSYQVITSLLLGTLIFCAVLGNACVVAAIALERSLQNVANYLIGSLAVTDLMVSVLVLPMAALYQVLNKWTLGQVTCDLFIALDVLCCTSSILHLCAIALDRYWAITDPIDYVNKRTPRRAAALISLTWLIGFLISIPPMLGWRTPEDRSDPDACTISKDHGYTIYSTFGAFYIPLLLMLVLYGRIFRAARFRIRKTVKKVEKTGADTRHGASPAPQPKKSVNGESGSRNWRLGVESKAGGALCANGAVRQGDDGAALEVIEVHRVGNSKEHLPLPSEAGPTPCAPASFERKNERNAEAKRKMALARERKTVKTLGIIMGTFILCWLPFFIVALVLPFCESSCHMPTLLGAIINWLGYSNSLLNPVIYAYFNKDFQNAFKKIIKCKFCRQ

[4] = molecular target: 5-hydroxytryptamine receptor 2A (Homo sapiens) (UniProt P28223); assay: In vitro binding affinity against human 5-hydroxytryptamine 2A receptor at a concentration of 100 (nM)
5-hydroxytryptamine receptor 2A (Homo sapiens), sequence (P28223 whole entry): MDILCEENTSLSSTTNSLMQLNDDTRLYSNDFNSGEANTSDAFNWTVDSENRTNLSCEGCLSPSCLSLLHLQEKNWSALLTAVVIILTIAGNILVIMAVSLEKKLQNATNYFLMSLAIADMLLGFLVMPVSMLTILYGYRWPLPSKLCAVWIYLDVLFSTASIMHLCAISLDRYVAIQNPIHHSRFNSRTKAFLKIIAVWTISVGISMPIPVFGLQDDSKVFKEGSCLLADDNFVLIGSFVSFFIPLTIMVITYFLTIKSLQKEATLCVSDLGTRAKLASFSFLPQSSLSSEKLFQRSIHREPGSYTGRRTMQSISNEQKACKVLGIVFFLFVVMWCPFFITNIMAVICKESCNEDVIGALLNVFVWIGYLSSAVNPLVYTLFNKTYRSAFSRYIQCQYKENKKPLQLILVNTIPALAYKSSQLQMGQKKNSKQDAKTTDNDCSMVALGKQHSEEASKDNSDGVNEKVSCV

[5] = molecular target: 5-hydroxytryptamine receptor 7 (Homo sapiens) (UniProt P34969); assay: In vitro binding affinity against human 5-hydroxytryptamine 7 receptor at a concentration of 100 (nM)
5-hydroxytryptamine receptor 7 (Homo sapiens), sequence (P34969 whole entry): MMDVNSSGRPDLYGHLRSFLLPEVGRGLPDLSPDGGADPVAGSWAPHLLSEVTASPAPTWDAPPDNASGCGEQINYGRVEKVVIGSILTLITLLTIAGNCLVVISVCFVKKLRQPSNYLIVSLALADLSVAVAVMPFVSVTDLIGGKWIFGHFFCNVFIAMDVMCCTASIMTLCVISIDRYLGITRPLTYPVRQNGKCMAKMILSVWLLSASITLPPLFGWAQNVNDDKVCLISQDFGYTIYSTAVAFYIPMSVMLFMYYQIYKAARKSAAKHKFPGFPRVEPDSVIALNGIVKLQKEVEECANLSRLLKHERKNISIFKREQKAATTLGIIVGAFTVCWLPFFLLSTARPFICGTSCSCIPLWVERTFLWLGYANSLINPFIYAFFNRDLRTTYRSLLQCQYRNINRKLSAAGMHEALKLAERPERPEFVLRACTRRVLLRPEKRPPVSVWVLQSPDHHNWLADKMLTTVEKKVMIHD

[6] = molecular target: D(2) dopamine receptor (Homo sapiens) (UniProt P14416); assay: In vitro binding affinity against human Dopamine receptor D2 at a concentration of 100 (nM)
D(2) dopamine receptor (Homo sapiens), sequence (P14416 whole entry): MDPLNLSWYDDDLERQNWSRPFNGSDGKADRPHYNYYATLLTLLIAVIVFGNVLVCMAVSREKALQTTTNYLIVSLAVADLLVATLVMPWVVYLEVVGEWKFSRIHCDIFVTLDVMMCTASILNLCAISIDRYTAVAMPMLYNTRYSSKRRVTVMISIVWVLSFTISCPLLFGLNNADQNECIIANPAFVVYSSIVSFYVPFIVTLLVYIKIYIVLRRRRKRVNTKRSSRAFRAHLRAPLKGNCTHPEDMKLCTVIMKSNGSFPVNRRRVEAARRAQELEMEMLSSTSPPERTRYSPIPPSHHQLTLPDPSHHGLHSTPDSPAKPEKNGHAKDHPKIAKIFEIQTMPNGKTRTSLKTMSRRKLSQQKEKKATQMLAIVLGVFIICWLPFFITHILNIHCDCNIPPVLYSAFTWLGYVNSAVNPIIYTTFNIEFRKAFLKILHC

[7] = molecular target: 5-hydroxytryptamine receptor 1D (Homo sapiens) (UniProt P28221); assay: In vitro binding affinity against human 5-hydroxytryptamine 1D receptor at a concentration of 100 (nM)
5-hydroxytryptamine receptor 1D (Homo sapiens), sequence (P28221 whole entry): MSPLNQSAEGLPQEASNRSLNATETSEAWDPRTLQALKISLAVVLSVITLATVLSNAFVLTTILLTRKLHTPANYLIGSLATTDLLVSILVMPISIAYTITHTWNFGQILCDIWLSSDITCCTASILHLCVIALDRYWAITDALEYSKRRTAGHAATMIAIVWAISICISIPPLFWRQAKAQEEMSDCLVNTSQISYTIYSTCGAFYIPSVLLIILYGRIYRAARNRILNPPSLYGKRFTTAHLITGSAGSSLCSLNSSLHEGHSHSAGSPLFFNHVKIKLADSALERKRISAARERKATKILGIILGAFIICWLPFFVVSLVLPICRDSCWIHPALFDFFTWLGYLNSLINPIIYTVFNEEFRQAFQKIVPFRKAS

[8] = molecular target: T3, 5-hydroxytryptamine receptor 2C (Homo sapiens) (UniProt P28335); assay: In vitro binding affinity against human 5-hydroxytryptamine 2C receptor at a concentration of 100 (nM)
T3 sequence (whole entry): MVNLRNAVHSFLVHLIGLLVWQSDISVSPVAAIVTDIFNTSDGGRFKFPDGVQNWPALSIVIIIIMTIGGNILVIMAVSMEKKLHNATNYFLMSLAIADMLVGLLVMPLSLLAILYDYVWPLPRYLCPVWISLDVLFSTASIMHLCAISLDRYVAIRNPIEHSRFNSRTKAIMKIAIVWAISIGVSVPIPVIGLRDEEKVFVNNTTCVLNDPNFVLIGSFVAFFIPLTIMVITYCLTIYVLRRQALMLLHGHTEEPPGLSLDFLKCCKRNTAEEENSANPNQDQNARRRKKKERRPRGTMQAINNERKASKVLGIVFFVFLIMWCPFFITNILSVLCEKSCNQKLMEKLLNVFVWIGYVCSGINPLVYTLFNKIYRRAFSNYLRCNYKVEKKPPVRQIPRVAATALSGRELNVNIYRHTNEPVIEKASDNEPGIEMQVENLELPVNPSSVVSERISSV

[9] = molecular target: D(1A) dopamine receptor (Homo sapiens) (UniProt P21728); assay: In vitro binding affinity against human Dopamine receptor D1 at a concentration of 100 (nM)
D(1A) dopamine receptor (Homo sapiens), sequence (P21728 whole entry): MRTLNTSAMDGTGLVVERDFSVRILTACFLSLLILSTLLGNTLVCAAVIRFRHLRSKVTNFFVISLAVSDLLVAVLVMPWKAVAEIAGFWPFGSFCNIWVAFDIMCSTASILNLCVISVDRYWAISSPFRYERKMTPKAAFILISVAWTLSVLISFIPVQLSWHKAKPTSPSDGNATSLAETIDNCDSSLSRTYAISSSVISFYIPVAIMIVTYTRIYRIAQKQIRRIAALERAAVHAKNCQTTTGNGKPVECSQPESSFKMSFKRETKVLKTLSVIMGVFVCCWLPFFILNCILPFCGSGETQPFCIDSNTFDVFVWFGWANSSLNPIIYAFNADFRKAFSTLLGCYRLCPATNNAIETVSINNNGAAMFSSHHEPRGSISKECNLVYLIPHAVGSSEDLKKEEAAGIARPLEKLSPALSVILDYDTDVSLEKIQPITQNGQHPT

[10] = molecular target: 5-hydroxytryptamine receptor 2B (Homo sapiens) (UniProt P41595); assay: In vitro binding affinity against human 5-HT2B receptor at a concentration of 100 (nM)
5-hydroxytryptamine receptor 2B (Homo sapiens), sequence (P41595 whole entry): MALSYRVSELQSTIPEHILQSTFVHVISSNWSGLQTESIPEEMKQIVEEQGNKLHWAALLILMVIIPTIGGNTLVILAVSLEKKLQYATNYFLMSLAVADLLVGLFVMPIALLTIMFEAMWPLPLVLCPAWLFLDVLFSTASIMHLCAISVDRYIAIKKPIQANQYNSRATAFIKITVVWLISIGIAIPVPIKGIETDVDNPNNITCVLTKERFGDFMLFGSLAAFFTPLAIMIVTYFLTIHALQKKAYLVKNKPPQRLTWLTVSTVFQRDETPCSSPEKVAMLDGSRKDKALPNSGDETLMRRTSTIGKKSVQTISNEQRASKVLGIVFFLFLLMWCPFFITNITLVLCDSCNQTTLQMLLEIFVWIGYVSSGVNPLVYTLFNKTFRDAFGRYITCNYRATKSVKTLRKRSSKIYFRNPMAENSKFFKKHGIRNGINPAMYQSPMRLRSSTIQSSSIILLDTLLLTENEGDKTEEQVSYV

[11] = molecular target: Muscarinic acetylcholine receptors; M1 & M2 (Homo sapiens) (UniProt P11229+P08172); assay: In vitro binding affinity against human Muscarinic acetylcholine receptor M1- Muscarinic acetylcholine receptor M2 at a concentration of 100 (nM); type: protein assay
[12] = molecular target: 5-hydroxytryptamine receptor 1B (Homo sapiens) (UniProt P28222); assay: In vitro binding affinity against human 5-hydroxytryptamine 1B receptor at a concentration of 100 (nM)
5-hydroxytryptamine receptor 1B (Homo sapiens), sequence (P28222 whole entry): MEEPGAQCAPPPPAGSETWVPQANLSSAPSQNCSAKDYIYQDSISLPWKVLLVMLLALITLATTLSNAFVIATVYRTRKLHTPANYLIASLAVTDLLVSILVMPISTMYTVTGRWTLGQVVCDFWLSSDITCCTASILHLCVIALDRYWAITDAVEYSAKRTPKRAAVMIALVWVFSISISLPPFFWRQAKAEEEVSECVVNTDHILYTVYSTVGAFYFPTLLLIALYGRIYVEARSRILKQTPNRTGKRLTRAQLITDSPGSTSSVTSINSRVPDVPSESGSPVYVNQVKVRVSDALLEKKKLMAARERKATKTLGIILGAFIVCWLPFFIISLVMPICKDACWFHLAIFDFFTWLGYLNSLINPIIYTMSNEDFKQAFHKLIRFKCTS

[13] = molecular target: D(3) dopamine receptor (Homo sapiens) (UniProt P35462); assay: In vitro binding affinity against human Dopamine receptor D3 at a concentration of 100 (nM)
D(3) dopamine receptor (Homo sapiens), sequence (P35462 whole entry): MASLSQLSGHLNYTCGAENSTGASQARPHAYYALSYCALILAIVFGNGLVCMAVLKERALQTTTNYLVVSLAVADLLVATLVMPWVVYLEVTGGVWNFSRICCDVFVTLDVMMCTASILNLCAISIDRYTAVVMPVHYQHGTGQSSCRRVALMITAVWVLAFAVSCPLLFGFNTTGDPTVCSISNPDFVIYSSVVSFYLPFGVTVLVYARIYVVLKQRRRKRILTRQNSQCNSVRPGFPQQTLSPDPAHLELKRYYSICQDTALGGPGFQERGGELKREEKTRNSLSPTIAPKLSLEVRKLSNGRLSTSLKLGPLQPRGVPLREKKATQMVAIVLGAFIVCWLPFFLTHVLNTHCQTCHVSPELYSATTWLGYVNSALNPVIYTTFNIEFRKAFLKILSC

[14] = molecular target: D(1B) dopamine receptor (Homo sapiens) (UniProt P21918); assay: In vitro binding affinity against human D5 receptor at a concentration of 100 (nM)
D(1B) dopamine receptor (Homo sapiens), sequence (P21918 whole entry): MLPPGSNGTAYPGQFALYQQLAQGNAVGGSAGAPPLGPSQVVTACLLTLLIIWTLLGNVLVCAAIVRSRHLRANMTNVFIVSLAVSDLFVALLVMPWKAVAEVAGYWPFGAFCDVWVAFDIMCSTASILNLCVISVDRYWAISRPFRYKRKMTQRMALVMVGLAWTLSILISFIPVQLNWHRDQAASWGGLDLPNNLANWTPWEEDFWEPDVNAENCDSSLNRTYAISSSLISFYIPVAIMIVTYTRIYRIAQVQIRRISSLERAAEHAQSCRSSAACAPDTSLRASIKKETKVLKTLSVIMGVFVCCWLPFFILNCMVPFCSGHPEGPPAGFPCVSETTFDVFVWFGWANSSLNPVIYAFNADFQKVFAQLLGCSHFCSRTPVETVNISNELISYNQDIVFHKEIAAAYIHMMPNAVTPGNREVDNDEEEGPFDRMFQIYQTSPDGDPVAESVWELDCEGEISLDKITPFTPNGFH

[15] = molecular target: Adrenergic receptor alpha-1 (Homo sapiens) (UniProt P35348+P25100+P35368); assay: In vitro binding affinity against human Alpha-1 adrenergic receptor at a concentration of 100 (nM); type: protein assay
[16] = molecular target: T4, D(4) dopamine receptor (Homo sapiens) (UniProt P21917); assay: In vitro binding affinity against human Dopamine receptor D4 at a concentration of 100 (nM)
T4 sequence (whole entry): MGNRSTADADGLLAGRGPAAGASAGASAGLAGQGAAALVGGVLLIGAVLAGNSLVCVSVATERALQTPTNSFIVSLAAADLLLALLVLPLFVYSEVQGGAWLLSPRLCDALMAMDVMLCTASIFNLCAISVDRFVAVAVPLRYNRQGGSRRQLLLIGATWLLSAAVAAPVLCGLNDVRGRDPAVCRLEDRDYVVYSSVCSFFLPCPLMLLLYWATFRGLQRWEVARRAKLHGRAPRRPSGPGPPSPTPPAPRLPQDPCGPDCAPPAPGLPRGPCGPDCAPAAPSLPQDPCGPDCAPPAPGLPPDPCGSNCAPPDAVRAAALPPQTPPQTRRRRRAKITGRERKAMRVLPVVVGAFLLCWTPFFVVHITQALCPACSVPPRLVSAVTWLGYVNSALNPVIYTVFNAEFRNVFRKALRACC

Structure (SMILES): O=S(=O)(c1cccc2ccccc12)n1ccc2ccc(N3CCN4CCCCC4C3)cc21 (centres undefined)
Ki [1]: 1.7 nM

Structure (SMILES): O=S(=O)(c1cccc2ccccc12)n1ccc2ccc(C3(O)CCN4CCCC4C3)cc21 (centres undefined)
Ki [1]: 4.7 nM

Structure (SMILES): O=S(=O)(c1cccc2ccccc12)n1ccc2ccc(C3=CCN4CCCC4C3)cc21 (centres undefined)
Ki [1]: 1.3 nM

Structure (SMILES): O=S(=O)(c1ccc(F)cc1F)n1ccc2ccc(N3CCN4CCCCC4C3)cc21 (centres undefined)
Ki [1]: 3.6 nM

Structure (SMILES): O=S(=O)(c1ccccc1)n1ccc2ccc(N3CCN4CCCCC4C3)cc21 (centres undefined)
Ki [1]: 5.7 nM

Structure (SMILES): O=S(=O)(c1cccc2ccccc12)n1ccc2ccc(C3CCN4CCCC4C3)cc21 (single isomer, unassigned; less polar)
Ki [1]: 0.6 nM

Structure (SMILES): Cc1ccc(S(=O)(=O)n2ccc3ccc(N4CCN5CCCC5C4)cc32)cc1 (centres undefined)
Ki [1]: 3.3 nM

Second part, the compound after the results:

Ki [1]: 4.9 nM
Structure (SMILES): Cc1ccc(S(=O)(=O)n2ccc3ccc(N4CCN5CCCCC5C4)cc32)cc1 (centres undefined)

inhibition [2]: 9%
inhibition [3]: 79%
inhibition [4]: 32%
inhibition [5]: 8%
inhibition [6]: 7%
inhibition [7]: 5%
inhibition [8]: 17%
inhibition [9]: 1%
inhibition [10]: 36%
inhibition [11]: 0%
inhibition [12]: 2%
inhibition [13]: 22%
inhibition [14]: 0%
inhibition [15]: 0%
inhibition [16]: 0%
Structure (SMILES): O=S(=O)(c1cccc2ccccc12)n1ccc2ccc(N3CCN4CCCC4C3)cc21 (centres undefined)

Ki [1]: 3 nM
Structure (SMILES): O=S(=O)(c1ccc2ccccc2c1)n1ccc2ccc(N3CCN4CCCCC4C3)cc21 (centres undefined)
